In ChEMBL document CHEMBL4330134, “Design, synthesis, and bioevaluation of a novel class of (E)-4-oxo-crotonamide derivatives as potent antituberculosis agents” (Bioorg Med Chem Lett, 2019):
≈ marks a conversion by molar mass, not a printed value.

Tested on: Mycobacterium tuberculosis
Test: Antimycobacterial activity against Mycobacterium tuberculosis H37Rv ATCC 27294 after 4 days by microplate Alamar blue assay
Type: functional
Details: H37Rv ATCC 27294, 96 h

Row | SMILES | MIC [µg/mL]
1 | COC(=O)/C=C/C(=O)c1ccc(OCc2ccccc2)cc1 | 0.67 (≈ 2.26 µM)
2 | CCOC(=O)/C=C/C(=O)c1ccc([N+](=O)[O-])cc1 | 0.48 (≈ 1.93 µM)
3 | CCOC(=O)/C=C/C(=O)c1ccc(Cl)cc1Cl | 1.09 (≈ 3.99 µM)
4 | CCOc1ccc(C(=O)/C=C/C(=O)OCCNC(=O)OC(C)(C)C)cc1 | 1.45 (≈ 3.99 µM)
5 | O=C(O)/C=C/C(=O)c1ccc(Cl)cc1Cl | > 4
6 | CN(C)C(=O)/C=C/C(=O)c1cccc(C(F)(F)F)c1 | 1.95 (≈ 7.19 µM)
7 | COc1cccc(C(=O)/C=C/C(=O)OCCNC(=O)OC(C)(C)C)c1 | > 4
8 | CC(C)OC(=O)/C=C/C(=O)c1ccco1 | 0.65 (≈ 3.12 µM)
9 | CC(C)OC(=O)/C=C/C(=O)c1ccc(-c2ccccc2)cc1 | 0.24 (≈ 0.815 µM)
10 | CC(C)(C)OC(=O)NCCOC(=O)/C=C/C(=O)c1ccccc1 | > 4
11 | CCCN(CCC)C(=O)/C=C/C(=O)c1ccc(Cl)cc1 | 1.67 (≈ 5.68 µM)
12 | CCOC(=O)/C=C/C(=O)c1ccccc1 | 0.82 (≈ 4.02 µM)
13 | CN(C)C(=O)/C=C/C(=O)c1ccc(Cl)cc1 | 0.38 (≈ 1.6 µM)
14 | COc1ccc(OC)c(C(=O)/C=C/C(=O)OCCNC(=O)OC(C)(C)C)c1 | > 4
15 | CCN(C)C(=O)/C=C/C(=O)c1ccc2c(c1)OCO2 | > 2
16 | COC(=O)/C=C/C(=O)c1ccc(OC)c(OC)c1 | 0.44 (≈ 1.76 µM)
17 | CC(C)(C)OC(=O)NCCOC(=O)/C=C/C(=O)c1ccc(Br)cc1 | > 4
18 | COC(=O)/C=C/C(=O)c1ccc(Br)cc1 | 0.49 (≈ 1.82 µM)
19 | COC(=O)/C=C/C(=O)c1ccc(-c2ccccc2)cc1 | 0.2 (≈ 0.751 µM)
20 | CC(C)OC(=O)/C=C/C(=O)c1ccc(OCc2ccccc2)cc1 | 1.14 (≈ 3.51 µM)
21 | CCCN(CCC)C(=O)/C=C/C(=O)c1ccc(OC)cc1 | 1.89 (≈ 6.53 µM)
22 | O=C(O)/C=C/C(=O)C1CC1 | > 4
23 | CCN(C)C(=O)/C=C/C(=O)c1ccccc1Cl | 0.65 (≈ 2.58 µM)
24 | CCN(C)C(=O)/C=C/C(=O)c1ccc(OC)cc1 | 0.93 (≈ 3.76 µM)
25 | CC(C)OC(=O)/C=C/C(=O)c1ccc(Cl)cc1Cl | 1.01 (≈ 3.52 µM)
26 | CCN(C)C(=O)/C=C/C(=O)c1cccc(C(F)(F)F)c1 | > 2
27 | COC(=O)/C=C/C(=O)c1ccc2c(c1)OCO2 | 0.38 (≈ 1.62 µM)

Row | SMILES | MIC [µg/mL]
28 | COC(=O)/C=C/C(=O)c1ccc2c(c1)CCO2 | 0.84 (≈ 3.62 µM)
29 | CCCN(CCC)C(=O)/C=C/C(=O)c1ccc(Cl)c(Cl)c1 | 0.88 (≈ 2.68 µM)
30 | COc1ccccc1C(=O)/C=C/C(=O)OCCNC(=O)OC(C)(C)C | > 4
31 | COC(=O)/C=C/C(=O)c1ccccc1OC | 0.99 (≈ 4.5 µM)
32 | CC(C)(C)OC(=O)NCCOC(=O)/C=C/C(=O)c1ccc(OCc2ccccc2)cc1 | 1.91 (≈ 4.49 µM)
33 | CCN(C)C(=O)/C=C/C(=O)c1cccc(F)c1 | 0.48 (≈ 2.04 µM)
34 | CCOC(=O)/C=C/C(=O)c1cc(OC)ccc1OC | 1.05 (≈ 3.97 µM)
35 | CN(C)C(=O)/C=C/C(=O)c1ccccc1Cl | 0.84 (≈ 3.53 µM)
36 | COc1ccc(C(=O)/C=C/C(=O)N(C)C)cc1 | 0.38 (≈ 1.63 µM)
37 | CCOc1ccc(C(=O)/C=C/C(=O)N(C)C)cc1 | 0.48 (≈ 1.94 µM)
38 | CCOC(=O)/C=C/C(=O)c1ccc(OC)cc1 | 0.46 (≈ 1.96 µM)
39 | CCN(C)C(=O)/C=C/C(=O)c1ccccc1F | 0.24 (≈ 1.02 µM)
40 | CC(=O)/C=C/C(=O)OC(C)C | 2.5 (≈ 16 µM)
41 | CCOC(=O)/C=C/C(C)=O | 3.51 (≈ 24.7 µM)
42 | CCCN(CCC)C(=O)/C=C/C(=O)c1cccc(OC)c1 | > 2
43 | CCOc1ccc(C(=O)/C=C/C(=O)N(C)CC)cc1 | 0.48 (≈ 1.84 µM)
44 | CN(C)C(=O)/C=C/C(=O)c1cccc(F)c1 | 1.84 (≈ 8.32 µM)
45 | CC(C)OC(=O)/C=C/C(=O)c1cccc2ccccc12 | 0.69 (≈ 2.57 µM)
46 | CN(C)C(=O)/C=C/C(=O)c1cccc([N+](=O)[O-])c1 | > 2
47 | CCCN(CCC)C(=O)/C=C/C(=O)c1ccccc1[N+](=O)[O-] | 1.24 (≈ 4.07 µM)
48 | COC(=O)/C=C/C(=O)c1ccc([N+](=O)[O-])cc1 | 0.54 (≈ 2.3 µM)
49 | CC(C)OC(=O)/C=C/C(=O)c1ccc2c(c1)OCO2 | 0.87 (≈ 3.32 µM)
50 | CN(C)C(=O)/C=C/C(=O)c1cccc(Cl)c1 | 0.89 (≈ 3.74 µM)
51 | O=C(O)/C=C/C(=O)c1ccc(Oc2ccccc2)cc1 | > 4
52 | CCCN(CCC)C(=O)/C=C/C(=O)c1ccc2c(c1)OCO2 | > 2
53 | CC(C)(C)OC(=O)NCCOC(=O)/C=C/C(=O)c1ccc2c(c1)OCO2 | > 4
